The record followed here is PMC3561402, “Signaling Pathways of ESE-16, an Antimitotic and Anticarbonic Anhydrase Estradiol Analog, in Breast Cancer Cells” (PLoS ONE, 2013).

In the assay the target is T1, carbonic anhydrase II (wild-type CAII) (Homo sapiens, UniProt P00918).
T1 construct: gene CA2
Put plainly: […] exchange, membrane inlet mass spectrometry; Henderson tight-binding analysis. In kind it is biochemical.

The term Ki denotes a measure of affinity in units of concentration, obtained from inhibition or displacement. The low end stands for tighter binding, the high end for weaker binding. For `CCc1cc2c(cc1OS(N)(=O)=O)CC[C@@H]1[C@@H]2CC[C@]2(C)C=CC[C@@H]12` [ESE-16, 2-ethyl-3-O-sulphamoyl-estra-1,3,5(10)16-tetraene], the Ki amounted to 569 ± 61 nM.
